Where a SMILES comes first, the peptide text is derived from it.
| SMILES | logP |
| --- | --- |
| CC1OC(OC2C(O)CC(OC3C(O)CC(OC4CCC5(C)C(CCC6C5CCC5(C)C(C7=CC(=O)OC7)C(O)CC65O)C4)OC3C)OC2C)CC(O)C1O (centres undefined) | 1.67 |
| CCc1cccc2ccccc12 | 4.4 |
| CCCNCC(O)COc1ccc(-c2ncc(-c3cccs3)[nH]2)cc1 (centres undefined) | 2.84 |
| CCCN(C(C)=O)C(C)C | 1.48 |
| O=C(O)c1ccc(Cl)cc1Nc1cccc(Br)c1 | 5.16 |
| Nc1nnc(CCc2ccccc2)o1 | 1.19 |
| CCCCCCCCc1ccccc1 | 6.3 |
| CC1c2nc3ccccc3c(=O)n2CN1CCc1ccccc1 (centres undefined) | 1.8 |
| [N-]=[N+]=N[C@H]1C[C@H](n2ccc(N)nc2=O)O[C@@H]1CO | -0.7 |
| O=C(O)Cc1ccc(C2CCCC2)cc1 | 3.44 |
| OC(Cn1ccnc1)(c1ccc(F)cc1)c1ccc(-c2ccccc2)cc1 (centres undefined) | 4.23 |
| CC(=O)Nc1ccccc1C(N)=O | 0.32 |
| CCCCCCCCCCCCCCCCCCCC(=O)O | 9.29 |
| C=C(C)C(=O)OCCCOC(=O)C(=C)C | 1.86 |
| COc1ccc(CC(C)N)cc1OC (centres undefined) | 1.2 |
| OCc1cccc2ccccc12 | 2.37 |
| CC1CCCc2nccc(=O)n21 (centres undefined) | 0.3 |
| Nc1ccc(S(=O)(=O)Nc2ccc([N+](=O)[O-])cc2)cc1 | 2.14 |
| COc1ncnc2c1ncn2C1OC(CO)C(OC(=O)Cc2ccccc2)C1OC(=O)Cc1ccccc1 (centres undefined) | 3.48 |
| CCN(CC)CCC(=O)Nc1c(C)cccc1C | 2.21 |
| CCOc1cc(Cc2cnc(N)nc2N)ccc1OC | 1.2 |
| CC1CC(C)(C)CC(c2ccccc2)(N2CCCCC2)C1 (centres undefined) | 6.35 |
| Cc1cc2c(ccc3ccc(=O)oc32)o1 | 2.55 |
| O=C(CN1CCOCC1)NCc1ccccc1 | 0.67 |
| Cc1ccc(N(C)C)cc1 | 2.81 |
| C[C@H]1O[C@@H](O[C@H]2[C@@H](O)C[C@H](O[C@H]3[C@@H](O)C[C@H](O[C@H]4CC[C@@]5(C)[C@H](CC[C@@H]6[C@@H]5CC[C@]5(C)[C@@H](C7=CC(=O)OC7)CC[C@]65O)C4)O[C@@H]3C)O[C@@H]2C)C[C@H](O)[C@@H]1O | 1.85 |

| SMILES | logP |
| --- | --- |
| CCc1ccc(CC(=O)O)cc1 | 2.25 |
| CCNC(=O)c1cc(Br)cc(C)c1O | 3.61 |
| COc1ccc(CCNCC(O)COc2ccc(-c3ncc(Cl)[nH]3)cc2)cc1OC (centres undefined) | 2.4 |
| CCCOc1cc(Br)c(Cc2cnc(N)nc2N)cc1OC | 2.84 |
| Cc1cccc(C)c1NC(=O)CCCN | 0.71 |
| COc1cccc2c1C(=O)c1c(O)c3c(c(O)c1C2=O)C[C@@](O)(C(C)=O)C[C@@H]3O[C@H]1C[C@H](N)[C@H](O)[C@H](C)O1 | 1.83 |
| CN(C)c1ccc(C(O)(Cn2ccnc2)c2ccc(-c3ccncc3)cc2)cc1 (centres undefined) | 3.29 |
| Cc1ccc(N2Cn3c(nc4ccccc4c3=O)C2C)cc1 (centres undefined) | 2.16 |
| CCC(CC)C(=O)O | 1.68 |
| CCNC(=O)c1cc(Cl)cc(C)c1O | 3.55 |
| Cc1ccc(S(=O)(=O)NC(=O)Nc2ccccc2)cc1 | 3.11 |
| CCOc1ccc(NC(=O)CN2CCCCC2)cc1 | 2.82 |
| Nc1ncnc2c1ncn2[C@H]1CC[C@@H](CO)O1 | -0.25 |
| O=C1CCc2ccccc2N1 | 1.34 |
| CCC(=O)OC(C(=O)NC12CC3CC(CC(C3)C1)C2)c1ccccc1 (centres undefined) | 3.72 |
| O=C(NC1CCCCC1)NS(=O)(=O)c1ccc(Cl)cc1 | 3.38 |
| COC(=O)c1ccc(N)cc1 | 1.37 |
| O=C(c1ccc(Cl)cc1Cl)c1ccc2n1CCC2C(=O)O (centres undefined) | 3.56 |
| Cc1cnc2n(c1=O)CCCC2C (centres undefined) | 0.69 |
| Cc1ccccc1NC1=NCCN1 | 1.28 |
| [O-][n+]1ccc(NO)c2ccccc21 | 0 |
| N#CSO | 0.32 |
| N[C@@H](Cc1ccc(O)c(O)c1)C(=O)O | -2.39 |
| O=[N+]([O-])c1ccc(Cc2ccncc2)cc1 | 2.88 |
| CC[C@@H]1C(=O)OC[C@@H]1Cc1cncn1C | 0.12 |
| CC(C)(C)c1cccc(O)c1 | 3.3 |

| SMILES | logP |
| --- | --- |
| O=C(Cn1ccnc1[N+](=O)[O-])NCc1ccccc1 | 0.91 |
| CCN(CC)CCCC(=O)Nc1c(C)cccc1C | 2.06 |
| CNC(=O)c1cc(Br)cc(C)c1O | 3.51 |
| CCCCCCCCCCCC(=O)CC(=O)Nc1c(OC)cc(OC)cc1OC | 5.02 |
| CCOC(=O)C=COc1ccccc1Cl | 3.55 |
| O=C1NC(=O)c2cc(-c3ccccc3)ccc21 | 2.97 |
| O=C(CN1CCCC1)NCc1ccccc1 | 1.69 |
| CCCCCCCCC(=O)O | 3.42 |
| COc1cc2nc(N3CCN(C(=O)C(C)OC)CC3)nc(N)c2cc1OC (centres undefined) | 1.14 |
| Cc1ccc(S(=O)(=O)NC(=O)NN2CCCCCC2)cc1 | 2.69 |
| CCCCNC(=O)n1cc(F)c(=O)[nH]c1=O | 1.44 |
| CNC(=O)NS(=O)(=O)c1ccc(Cl)cc1 | 1.16 |
| COC1CC2(C)C(O)CCC2C2CCc3cc(O)ccc3C12 (centres undefined) | 2.72 |
| CCCn1c(=O)n(C)c(=O)c2nc[nH]c21 | 1.02 |
| CCNC(C)Cc1cccc(C(F)(F)F)c1 (centres undefined) | 3.36 |
| O=[N+]([O-])c1nccn1CCN1CCOCC1 | -0.1 |
| CNC(=S)NCCSCc1cncn1C | 0.32 |
| CCOCc1ccccc1 | 2.16 |
| Nc1ncc(Cc2cc3c(cc2Br)OCO3)c(N)n1 | 2.48 |
| C#CC1(O)CCC2C3CCc4cc(O)ccc4C3C(CC)CC21C (centres undefined) | 4.28 |
| CC(N)CC1CCCCCCC1 (centres undefined) | 3.7 |
| OCc1cc(Br)ccc1O | 1.72 |
| O=C(O)CCC(=O)c1ccccc1 | 1.3 |
| NCCc1cnc[nH]1 | -0.7 |
| COc1cc(Cc2cnc(N)nc2N)ccc1N(C)C | 1.87 |
| C=C(C)C(=O)OCC(CC)CCCC (centres undefined) | 4.54 |

| SMILES | logP |
| --- | --- |
| OCc1ccc(C(O)(Cn2ccnc2)c2ccc(-c3ccncc3)cc2)cc1 (centres undefined) | 2.4 |
| O=C1Nc2ccccc2C1c1ccccc1 (centres undefined) | 2.59 |
| CCCC(O)C(=O)O (centres undefined) | 0.45 |
| Cc1ccc(S(=O)(=O)NC(=O)NC2CCCCC2)cc1 | 2.9 |
| CCc1ccc(C)cc1 | 3.63 |
| COCCc1cnc(-c2ccc(OCC(O)CNCCc3ccc(OC)c(OC)c3)cc2)[nH]1 (centres undefined) | 2.06 |
| O=C(O)c1cc2ccccc2cc1O | 3.05 |
| Cc1cnc2n(c1=O)C(C)CCC2 (centres undefined) | 0.82 |
| CC(C)c1cc(C(C)C)cc(C2C(=O)c3ccccc3C2=O)c1 | 5.96 |
| CCCCNC(=O)c1cc(Br)cc(C)c1O | 4.21 |
| OC1(c2ccc(Cl)cc2)CCCCCC1n1cncn1 (centres undefined) | 3.54 |
| Cc1ccc(S(=O)(=O)NC(=O)NN2CCCC2)cc1 | 0.65 |
| CC(=O)NCC(=O)N[C@H](C(N)=O)C(C)C (Ac-Gly-Val-NH2) | -1.33 |
| CCCC(=O)OCC(=O)C1(O)CCC2C3CCC4=CC(=O)CCC4(C)C3C(O)CC21C (centres undefined) | 2.91 |
| CCCCCCCCCCC(=O)O | 4.42 |
| C=C(C)C(=O)OCC(F)(F)F | 1.56 |
| CCCCn1c(=O)n(C)c(=O)c2[nH]cnc21 | 1.29 |
| O=c1nc(-c2ccccc2)c2ccccc2[nH]1 | 1.91 |
| COc1ccc(CCNCC(O)COc2ccc(-c3ncc(C)[nH]3)cc2OC)cc1OC (centres undefined) | 1.89 |
| COC(=O)c1ccc(CN(C)N=O)cc1 | 1.21 |
| c1ccc(C2CCNCC2)cc1 | 2.39 |
| O=c1ccccc(O)c1 | 0.81 |
| CCCN(CCC)CC(=O)NCc1ccccc1 | 3.11 |
| Cc1ncc(NS(=O)(=O)c2ccc(N)cc2)c(C)n1 | 0.59 |
| c1ccc(-c2cnc3ccccc3n2)cc1 | 3.48 |
| C=C(C)C(=O)OCc1ccccc1 | 2.53 |
